Data as given in patent publication US20080249080A1, “Benzodiazepine Derivatives and Uses Thereof on Medical Field” (priority 2005, published 2008).

What was measured:
Assay type in all cases: cell-based, human
K562 cell line = assay: DNA fragmentation, K562 leukemic cell line; conditions: 10 μM, 24 and 48 hours, FIGS. 18, 20, 21
Method: (§1) Subsequently, the same cell lines, except OVCAR3, were tested with fourteen new synthetic compounds at 10 μM concentration for 24 and 48 hours: eleven induced the expected cellular death.

[1] = system: ARO anaplastic thyroid carcinoma cell line; assay: DNA fragmentation, ARO; conditions: 10 μM, 24 and 48 hours
Method: (§2) The authors also have tested compounds according to the invention, in particular RS-678 and RS-779 compounds, also on OVCAR3 ovary carcinoma cell lines, ARO anaplastic thyroid and NPA papillary thyroid human carcinoma cell lines.
as §1

[2] = system: NPA papillary thyroid carcinoma cell line; assay: DNA fragmentation, NPA; conditions: 10 μM, 24 and 48 hours
Method: as §2, §1

Compound | DNA fragmentation (K562 cell line) | DNA fragmentation [1] | DNA fragmentation [2]
COC(=O)CC1c2cccn2N(C)c2ccccc2N1C(=O)c1ccccc1 (stereo not drawn) [RS-337, methyl 10,11-dihydro-5-methyl-10-benzoyl-5H-pyrrolo[1,2-b][1,2,5]-benzotriazepine-11-acetate] | DNA fragmentation | DNA fragmentation | DNA fragmentation
COC(=O)CC1c2cccn2N(C)c2ccccc2N1C(=O)c1ccc(OC)cc1 (stereo not drawn) [RS-421, methyl 10,11-dihydro-5-methyl-10-(4-metoxybenzoyl)-5H-pyrrolo[1,2-b][1,2,5]-benzotriazepine-11-acetate] | DNA fragmentation | DNA fragmentation | DNA fragmentation
O=S1(=O)c2ccccc2NC(CO)c2cccn21 (stereo not drawn) [RS-750, 10,11-dihydropyrrolo [1,2-b][1,2,5]benzothiadiazepine-11-methanol 5,5-dioxide] | not present | not present | not present
O=C(O)CC1Nc2ccccc2S(=O)(=O)n2cccc21 (stereo not drawn) [RS-761, 10,11-dihydropyrrolo[1,2-b][1,2,5]benzothiadiazepine-11-acetic 5,5-dioxide acid] | not present | not present | not present
O=C(OC(c1ccc(Cl)cc1)C1Nc2ccccc2S(=O)(=O)n2cccc21)c1ccccc1 (stereo not drawn) [RS-786, 11-(4-Chlorophenybenzoyloxymethylene)10,11-dihydro pyrrolo[1,2-b][1,2,5]benzothiadiazepine 5,5-dioxide] | not present | not present | not present
CCOC(=O)C1c2cccn2S(=O)(=O)c2ccccc2N1C(=O)c1cccc2ccccc12 (stereo not drawn) [RS-2631, ethyl 10,11-dihydro-10-(1-naphtoyl)pyrrolo[1,2-b][1,2,5]benzo-thiadiazepine-11-carboxylate 5,5-dioxide] | DNA fragmentation | DNA fragmentation | DNA fragmentation
CCOC(=O)C1c2cccn2S(=O)(=O)c2ccccc2N1C(=O)c1ccc(F)cc1 (stereo not drawn) [RS-2632, ethyl 10,11-dihydro-10-(4-fluorobenzoyl)pyrrolo[1,2-b][1,2,5]benzothiadiazepine-11-carboxylate 5,5-dioxide] | DNA fragmentation | DNA fragmentation | DNA fragmentation
CCOC(=O)CC1c2cccn2S(=O)(=O)c2ccccc2N1C(=O)c1ccc(F)cc1 (stereo not drawn) [RS-2652, ethyl 10,11-dihydro-10-(4-fluorobenzoyl)pyrrolo[1,2-b][1,2,5]benzothiadiazepine-11-acetate 5,5-dioxide] | DNA fragmentation | DNA fragmentation | DNA fragmentation
CCOC(=O)CC1c2cccn2S(=O)(=O)c2ccccc2N1C(=O)c1ccc(Cl)cc1 (stereo not drawn) [RS-2660, ethyl 10,11-dihydro-10-(4-chlorobenzoyl)pyrrolo[1,2-b][1,2,5]benzothiadiazepine-11-acetate 5,5-dioxide] | DNA fragmentation | DNA fragmentation | DNA fragmentation
CCOC(=O)CC1c2cccn2S(=O)(=O)c2ccccc2N1C(=O)c1cccc2ccccc12 (stereo not drawn) [RS-2661, ethyl 10,11-dihydro-10-(1-naphtoyl)pyrrolo[1,2-b][1,2,5]benzothiadiazepine-11-acetate 5,5-dioxide] | DNA fragmentation | DNA fragmentation | DNA fragmentation
